Assay [1] has as its target Carbonic anhydrase 9 (Homo sapiens) (UniProt Q16790). The experiment in a line: Activation of human recombinant CA9 catalytic domain by stopped-flow CO2 hydration method.
Assay [2] concerns the target Carbonic anhydrase 12 (Homo sapiens) (UniProt O43570). Kind of assay: Activation of human recombinant CA12 catalytic domain by stopped-flow CO2 hydration method.

Carbonic anhydrase 12 (Homo sapiens), sequence (O43570 whole entry, the tested form may be a part): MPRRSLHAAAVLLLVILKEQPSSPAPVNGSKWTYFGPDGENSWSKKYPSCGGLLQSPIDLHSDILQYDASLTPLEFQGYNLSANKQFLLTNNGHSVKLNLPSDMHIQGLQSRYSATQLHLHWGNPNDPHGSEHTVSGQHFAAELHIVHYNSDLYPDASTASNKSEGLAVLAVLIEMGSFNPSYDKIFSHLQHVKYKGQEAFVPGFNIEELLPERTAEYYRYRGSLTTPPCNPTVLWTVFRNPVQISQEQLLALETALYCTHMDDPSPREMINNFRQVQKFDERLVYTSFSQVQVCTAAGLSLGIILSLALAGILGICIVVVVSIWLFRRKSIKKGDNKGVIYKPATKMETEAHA

With `N[C@@H](Cc1c[nH]c2ccccc12)C(=O)O`, the KA in assay [1] worked out at 37.5 µM; in assay [2], 26 µM.

As to `N[C@@H](Cc1ccc(O)c(O)c1)C(=O)O`, the values for the KA in assay [1] and in assay [2] were 51.3 µM and 1.67 µM, respectively.

As to `N[C@H](Cc1c[nH]cn1)C(=O)O`, the values for the KA in assay [1] and in assay [2] were 12.5 µM and 24.7 µM, respectively.

As to `NCCc1c[nH]c2ccc(O)cc12`, the results for the KA in assay [1] and in assay [2] were 33.1 µM and 0.3 µM, respectively.

For `NCCN1CCOCC1`, the KA came out at 0.43 µM in assay [1] and 0.24 µM in assay [2].

As to `NCCc1c[nH]cn1`, the KA in assay [1] was 35.1 µM; in assay [2] it was 27.9 µM.

Consider `N[C@@H](Cc1ccc(O)cc1)C(=O)O`, for which the figures for the KA in assay [1] and in assay [2] were 25.3 µM and 25.8 µM, respectively.

For `CNCC(O)c1ccc(O)c(O)c1` (single isomer, unassigned), the values for the KA in assay [1] and in assay [2] were 0.87 µM and 0.41 µM, respectively.

Regarding `Nc1ccc(C[C@H](N)C(=O)O)cc1`, the results for the KA in assay [1] and in assay [2] were 48.7 µM and 1.09 µM, respectively.

On to `N[C@H](Cc1c[nH]c2ccccc12)C(=O)O`, for which the KA in assay [1] was 43.6 µM; in assay [2] it was 28.1 µM.

For `NCc1ccccn1`, the KA in assay [1] amounted to 1.07 µM; in assay [2], 41.5 µM.

As for `N[C@@H](Cc1c[nH]cn1)C(=O)O`, the KA worked out at 9.71 µM in assay [1] and 37.5 µM in assay [2].

On to `N[C@H](Cc1ccc(O)c(O)c1)C(=O)O`, for which the KA in assay [1] came out at 54.7 µM; in assay [2] it was 0.89 µM.

Consider `NCCc1ccccn1`, for which the results for the KA in assay [1] and in assay [2] were 0.013 µM and 0.69 µM, respectively.

`NCCN1CCNCC1`: the KA in assay [1] was found to be 0.009 µM; in assay [2] it was 48.3 µM.

Take `NCCc1ccc(O)c(O)c1`: the KA in assay [1] came to 0.92 µM; in assay [2] it was 0.67 µM.

These data come from ChEMBL document CHEMBL1142388, “Carbonic anhydrase activators: activation of the human tumor-associated isozymes IX and XII with amino acids and amines” (Bioorg Med Chem, 2008).
